According to EP2813566A1, “Method for incorporating a compound into live yeast cells” (priority 2013, dated 2014):
Structures can show the parent of a compound that is named as a salt.

Tests used:
Type in all cases: cell-based
[1] = system: Escherichia coli (Migula1895) Castellani and Chalmers 1919AL, ATCC10536; assay: Kirby-Bauer Disk Diffusion method, Escherichia coli reference strain; conditions: for inhibition zone: 25-41-52-41°C
Source text: The culture medium is Nutrient agar (Oxoid CM3) in g/litre Lab-Lemco beef extract 1; Yeast extract 2; Peptone 5; NaCl 5; Agar 15; pH7.4
(§1) For experimental purposes, the antimicrobial activities of the antibiotic standard solution of known concentration, of the yeasts within their incorporation broth after the methods steps, of the supernatants collected by centrifugation and of the pellets of the centrifuged yeasts, after each washing cycle, were compared, using a Kirby-Bauer Disk Diffusion method.
(§2) Sterile filter or blotter paper disks were laid down on the gelose, humidified with PBS 3 µl. 6 to 12µl of each above-mentioned fraction were then sucked into the blotting paper disk.

[2] = system: Lactobacillus paracasei subsp. paracasei; assay: Kirby-Bauer Disk Diffusion method, Lactobacillus paracasei reference strain
Source text: Lactobacillus paracasei subsp. paracasei Collins, Phillips and Zanoni 1989 VP, type strain of Lactobacillus casei subsp. pseudoplantarum, came from the BCCM-LMG Bacteria collection, accession number 9192, ATCC 25598, depositor NCIMB. Lactobacillus kefiri Kandler and Kunath 1983VL, BCCM-LMG Bacteria collection, accession number 9480, ATCC 35411. A modified Man, Rogosa, Sharpe medium has been used for the Lactobacillus kefiri and for Lactobacillus paracasei culture, as a reference strain for antibiotic activity of the yeast strains: the composition (g/liter) peptone 10.0; meat extract 8.0; yeast extract 4.0; glucose 20.0; orthophosphate 2.0; magnesium sulphate heptahydrate 0.2; manganese sulphate tetrahydrate 0.05; ferrous sulphate 0.01; agar 10.0 The pH is adjusted to 6.2 with acetic acid.
as §1
(§3) The selected reference strains were Streptococcus pyogenes Rosenbach1884AL (BCCM-LMG 21599) or Lactobacillus paracasei subsp. paracasei Collins, Phillips and Zanoni 1989 VP (BCCM-LMG 9192).
(§4) The streptococci or lactobacilli reference strains populations were counted in a Neubauer cell, and then diluted in PBS so as to obtain 2 million germs in one ml buffer: 0.5 ml of the diluted culture medium were then streaked on the agar plates. Another method for obtaining the suitable density of reference bacteria is the culture medium dilution in PBS so as to obtain with a filter photometer, an optical density of 0.04 at 620nm.
as §2

[3] = system: Streptococcus pyogenes or Lactobacillus paracasei; assay: Kirby-Bauer Disk Diffusion method, reference strain not stated for the experiment; conditions: Saccharomyces bayanus Lalvin, red grape juice + Potato Plus Juice, clarithromycin 2mg/ml, pH 4.0
Source text: as §1, §3, §4, §2

[4] = system: Streptococcus pyogenes Rosenbach 1884AL, ATCC12344; assay: Kirby-Bauer Disk Diffusion method, Streptococcus pyogenes reference strain; conditions: for inhibition zone diameter: Saccharomyces Lalvin
Source text: Streptococcus pyogenes Rosenbach 1884AL, ATCC12344 comes from the BCCM-LMG Bacteria collection, accession number 21599, laboratorium voor microbiologie, UGent, B-9000 Gent. The culture medium is Brain Heart Infusion Broth of typical composition (g/litre) (brain extract, heart extract and peptones 27.5; D+glucose 2.0; sodium chloride 5.0; di-sodium hydrogen phosphate 2.5; agar-agar (not present in the broth) 15.0. Brain Heart Infusion Agar was purchased from Oxoid CM 0375. The medium may be enriched with a sterilized horse serum from defibrinated horse blood for 20 % of global volume. Brain Heart Infusion SM 225 from Oxoid may also be employed for streptococcus culture broth.
as §1, §3, §4, §2

SMILES: NCC[C@H](O)C(=O)N[C@@H]1C[C@H](N)[C@@H](O[C@H]2O[C@H](CN)[C@@H](O)[C@H](O)[C@H]2O)[C@H](O)[C@H]1O[C@H]1O[C@H](CO)[C@@H](O)[C@H](N)[C@H]1O [Amikacine sulfate standard in TBS, Amikacine sulphate]
- inhibition zone ([1]; Kluyveromyces marxianus, red grape juice + potatoes juice with selenium, Amukin 1mg/ml, pH 4.0, violet photoinduction): 26.5 mm

SMILES: CC[C@H]1OC(=O)[C@H](C)[C@@H](O[C@H]2C[C@@](C)(OC)[C@@H](O)[C@H](C)O2)[C@H](C)[C@@H](O[C@@H]2O[C@H](C)C[C@H](N(C)C)[C@H]2O)[C@](C)(OC)C[C@@H](C)C(=O)[C@H](C)[C@@H](O)[C@]1(C)O [Clarithromycin standard (2mg/ml), clarithromycin]
- inhibition zone diameter ([2]; Saccharomyces Lalvin, YPD broth pH 6.5, clarithromycin 2mg/ml, experiment with lethal heat stress 25-34-55-34-25°C): 40.5 mm
- inhibition zone ([2]; Saccharomyces Lalvin, clarithromycin 2mg/ml, pH 4.0, 25-41-43-35-25°C): 41 mm
- inhibition zone ([2]; Saccharomyces Lalvin, clarithromycin 2mg/ml, pH 4.0, 25-41-45-35-25°C): 41 mm
- inhibition zone ([2]; Saccharomyces Lalvin, clarithromycin 2mg/ml, pH 4.0, 25-41-47-35-25°C): 38.5 mm
- inhibition zone ([2]; Saccharomyces Lalvin, clarithromycin 2mg/ml, pH 4.0, 25-41-49-35-25°C): 40 mm
- inhibition zone ([2]; Saccharomyces Lalvin, clarithromycin 2mg/ml, pH 4.0, 25-41-51-35-25°C): 40 mm
- inhibition zone ([2]; Saccharomyces Lalvin, clarithromycin 2mg/ml, pH 4.0, 25-41-53-35-25°C): 40 mm
- inhibition zone ([2]; Saccharomyces Lalvin, clarithromycin 2mg/ml, pH 4.0, 25-41-54-35-25°C): 40 mm
- inhibition zone ([2]; Saccharomyces Lalvin, red grape juice + Potato Plus Juice, clarithromycin 2mg/ml, pH 4.0, 25-41-41-35-25°C (upper plate 41°C)): 41 mm
- inhibition zone diameter ([2]; Saccharomyces Lalvin, red grape juice + raw potatoes juice with selenium, clarithromycin 2mg/ml, pH 4.0, 25-41-52-41-35-25°C, 8µl on disk): 38 mm
- inhibition zone ([2]; Saccharomyces bayanus Lalvin QA23, red grape juice + raw potatoes juice with selenium, clarithromycin 2mg/ml, pH 4.0, 25-41-52-41-35°C, skullcap extract after 35°C plate): 42 mm
- inhibition zone ([2]; Saccharomyces bayanus Lalvin, clarithromycin 2mg/ml, pH 6.5, after sequence 25-41-52-41-35-25°C (last thermal plate), 8µl): 38.5 mm
- inhibition zone ([2]; Saccharomyces bayanus Lalvin, medium a: red grape juice + Potato Plus Juice, clarithromycin 2mg/ml, pH 4.0, 25-41-52-41-35-25°C, violet photoinduction): 39.5 mm
- inhibition zone ([2]; Saccharomyces bayanus Lalvin, medium c: red grape juice + Potato Plus Juice + spelt wheat hydrolysate, clarithromycin 2mg/ml, pH 6.5, 25-41-52-41-35-25°C, violet photoinduction): 36.5 mm
- inhibition zone ([3]; after sequence 25-35-52-41°C (last thermal plate)): 42 mm
- inhibition zone ([3]; after sequence 25-39-52-41°C (last thermal plate)): 42 mm
- inhibition zone in diameter ([4]; Kluyveromyces marxianus + Lactobacillus kefiri, red grape juice + sweet potatoes juice with selenium, clarithromycin, pH 4.0, 25-41-52-41°C, violet photoinduction): 47 mm
- inhibition zone diameter ([4]; YPD broth pH 6.5, clarithromycin 2mg/ml, simplified sequence 25-37-25°C (mild heat stress)): 38 mm
- inhibition zone diameter ([4]; red grape juice + raw potatoes juice with selenium, clarithromycin 2mg/ml, pH 4.0, thermal plates 25-41-52-41-35-25°C, 8µl on disk): 37 mm

SMILES: CC[C@H]1OC(=O)[C@H](C)[C@@H](O[C@H]2C[C@@](C)(OC)[C@@H](O)[C@H](C)O2)[C@H](C)[C@@H](O[C@@H]2O[C@H](C)C[C@H](N(C)C)[C@H]2O)[C@](C)(O)C[C@@H](C)C(=O)[C@H](C)[C@@H](O)[C@]1(C)O [Erythromycin standard (2mg/ml), Erythromycin]
- inhibition zone ([4]; Saccharomyces bayanus Lalvin, red grape juice + alkaline hydrolyzed spelt wheat flour + parsley juice, erythromycin 1mg/ml, pH 7.0, 25-41-52-41-35-25°C, violet photoinduction, BHI agar with defibrinated horse blood): 48 mm

SMILES: CS(=O)(=O)c1ccc([C@@H](O)[C@@H](CF)NC(=O)C(Cl)Cl)cc1 [Florfenicol]
- inhibition zone ([1]; Saccharomyces bayanus Lalvin and Saccharomyces cerevisiae combined, red grape juice medium, florfénicol 2mg/ml, pH 7.5, 20µl deposit): 39 mm

SMILES: O=C1CN(/N=C/c2ccc([N+](=O)[O-])o2)C(=O)N1 [Standard nitrofurantoin in DMSO, 1mg/ml, Nitrofurantoin]
- Inhibition zone diameters ([1]; 20µl deposits, Saccharomyces cerevisiae bayanus Lalvin QA23, nitrofurantoin, pH around 7.0, 90minutes 41°C, 60minutes 52°C): 32 mm
